Key:
[1] = target: MMP-9 (Homo sapiens, UniProt P14780); assay: K(obs) of individual phage substrates (set of 1369); type: biochemical; settings: MMP9, individual phage substrates, set of 1369 peptides
[2] = target: T1, MMP-2 (Homo sapiens, UniProt P08253); assay: as above; type: biochemical; settings: MMP2
T1 sequence (P08253 110-660): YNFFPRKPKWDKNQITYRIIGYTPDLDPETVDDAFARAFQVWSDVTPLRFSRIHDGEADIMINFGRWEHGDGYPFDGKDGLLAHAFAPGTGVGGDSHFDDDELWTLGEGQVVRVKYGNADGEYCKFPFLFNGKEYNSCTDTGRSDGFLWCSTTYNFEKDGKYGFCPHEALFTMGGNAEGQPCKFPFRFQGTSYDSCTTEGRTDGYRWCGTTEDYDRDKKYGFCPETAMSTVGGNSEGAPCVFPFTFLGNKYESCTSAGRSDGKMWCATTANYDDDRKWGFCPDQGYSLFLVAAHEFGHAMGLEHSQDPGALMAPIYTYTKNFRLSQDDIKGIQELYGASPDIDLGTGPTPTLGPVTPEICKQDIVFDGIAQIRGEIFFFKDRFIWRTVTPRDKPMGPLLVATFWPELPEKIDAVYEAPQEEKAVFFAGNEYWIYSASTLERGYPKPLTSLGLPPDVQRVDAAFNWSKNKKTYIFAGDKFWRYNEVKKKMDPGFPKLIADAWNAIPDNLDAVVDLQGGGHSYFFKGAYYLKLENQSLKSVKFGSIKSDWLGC

[3] = '-' marks the cleavage position (P1-P1')
[4] = individual phage substrates, set of 1369 peptides, cleavage position marked by '-' in the sequence
[5] = dash in sequence marks cleavage position
[6] = individual phage substrate from the set of 1369 peptides, cleavage position marked by the dash in the sequence

Sequence of MMP-9 (P14780 94-707): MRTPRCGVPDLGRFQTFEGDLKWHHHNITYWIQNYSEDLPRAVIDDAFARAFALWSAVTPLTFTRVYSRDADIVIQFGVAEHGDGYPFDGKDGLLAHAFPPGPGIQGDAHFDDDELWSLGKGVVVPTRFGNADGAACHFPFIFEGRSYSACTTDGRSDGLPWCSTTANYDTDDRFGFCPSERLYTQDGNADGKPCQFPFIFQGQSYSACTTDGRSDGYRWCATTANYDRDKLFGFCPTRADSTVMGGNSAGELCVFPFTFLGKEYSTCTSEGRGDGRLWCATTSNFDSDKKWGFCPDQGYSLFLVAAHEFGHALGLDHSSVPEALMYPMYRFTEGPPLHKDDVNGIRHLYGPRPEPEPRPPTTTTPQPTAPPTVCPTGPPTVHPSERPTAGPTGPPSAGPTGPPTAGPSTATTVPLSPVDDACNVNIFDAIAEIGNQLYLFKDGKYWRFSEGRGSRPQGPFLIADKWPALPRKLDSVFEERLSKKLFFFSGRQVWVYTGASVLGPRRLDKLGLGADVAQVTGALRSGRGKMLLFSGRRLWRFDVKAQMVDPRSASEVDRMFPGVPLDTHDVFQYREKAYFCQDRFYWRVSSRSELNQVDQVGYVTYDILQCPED

| Substance | Kobs [1, 3] | Kobs [2, 4] | Kobs [1, 5] | Kobs [2, 6] |
| --- | --- | --- | --- | --- |
| IFINF-LTASG | 323.705 M⁻¹ s⁻¹ | 10866.7 M⁻¹ s⁻¹ | – | – |
| IGYAW-MTASG | 201.585 M⁻¹ s⁻¹ | 5090.5 M⁻¹ s⁻¹ | – | – |
| IMMAY-LTASG | 113.394 M⁻¹ s⁻¹ | 12792.1 M⁻¹ s⁻¹ | – | – |
| IQLAW-LTASG | 5090.5 M⁻¹ s⁻¹ | 12792.1 M⁻¹ s⁻¹ | – | – |
| ISPAT-LTASG | 12792.1 M⁻¹ s⁻¹ | 12792.1 M⁻¹ s⁻¹ | – | – |
| ISPML-LTASG | 12792.1 M⁻¹ s⁻¹ | 1196.62 M⁻¹ s⁻¹ | – | – |
| IVNAR-LTASG | 56.119 M⁻¹ s⁻¹ | 2038.8 M⁻¹ s⁻¹ | – | – |
| KAALP-LTASG | 3964.21 M⁻¹ s⁻¹ | 2916.17 M⁻¹ s⁻¹ | – | – |
| KAPLK-LTASG | – | – | 12792.1 M⁻¹ s⁻¹ | 12792.1 M⁻¹ s⁻¹ |
| KMPRW-ITASG | – | – | 9740.44 M⁻¹ s⁻¹ | 6131.32 M⁻¹ s⁻¹ |
| KPVSA-LTASG | – | – | 551.253 M⁻¹ s⁻¹ | 12792.1 M⁻¹ s⁻¹ |
| KRAAS-LTASG | 1283.43 M⁻¹ s⁻¹ | 12792.1 M⁻¹ s⁻¹ | – | – |
| KSPAY-LTASG | – | – | 10866.7 M⁻¹ s⁻¹ | 10866.7 M⁻¹ s⁻¹ |
| KSPRM-LTASG | – | – | 12792.1 M⁻¹ s⁻¹ | 12792.1 M⁻¹ s⁻¹ |
| KVLAS-LTASG | – | – | 0 M⁻¹ s⁻¹ | 10866.7 M⁻¹ s⁻¹ |
| KWPER-LTASG | – | – | 1925.41 M⁻¹ s⁻¹ | 2038.8 M⁻¹ s⁻¹ |
| LGWSS-LTASG | – | – | 0 M⁻¹ s⁻¹ | 3344.37 M⁻¹ s⁻¹ |
| LPALN-MTASG | 4335.13 M⁻¹ s⁻¹ | 1513.13 M⁻¹ s⁻¹ | – | – |
| LPTRW-LTASG | 4082.43 M⁻¹ s⁻¹ | 7815.03 M⁻¹ s⁻¹ | – | – |
| LQPLT-ITASG | 12792.1 M⁻¹ s⁻¹ | 5090.5 M⁻¹ s⁻¹ | – | – |
| LVVAA-LTASG | 12792.1 M⁻¹ s⁻¹ | 12792.1 M⁻¹ s⁻¹ | – | – |
| MAYQS-LTASG | 726.013 M⁻¹ s⁻¹ | 8941.32 M⁻¹ s⁻¹ | – | – |
| MDLLS-LTASG | – | – | 0 M⁻¹ s⁻¹ | 1327.88 M⁻¹ s⁻¹ |
| MFHLN-ITASG | 690.17 M⁻¹ s⁻¹ | 1373.05 M⁻¹ s⁻¹ | – | – |
| MKPVN-LTASG | 12792.1 M⁻¹ s⁻¹ | 12792.1 M⁻¹ s⁻¹ | – | – |
| MVPHM-LTASG | 12792.1 M⁻¹ s⁻¹ | 12792.1 M⁻¹ s⁻¹ | – | – |

| Substance | Kobs [1, 3] | Kobs [2, 4] | Kobs [1, 5] | Kobs [2, 6] |
| --- | --- | --- | --- | --- |
| MVPSA-LTASG | 8941.32 M⁻¹ s⁻¹ | 7015.91 M⁻¹ s⁻¹ | – | – |
| MVVRH-LTASG | – | – | 12792.1 M⁻¹ s⁻¹ | 12792.1 M⁻¹ s⁻¹ |
| NDLAH-ITASG | – | – | 0 M⁻¹ s⁻¹ | 10866.7 M⁻¹ s⁻¹ |
| NFGRP-LTASG | 726.013 M⁻¹ s⁻¹ | 912.511 M⁻¹ s⁻¹ | – | – |
| NFPMS-LTASG | 12792.1 M⁻¹ s⁻¹ | 12792.1 M⁻¹ s⁻¹ | – | – |
| NKTAW-LTASG | 799.117 M⁻¹ s⁻¹ | 7386.83 M⁻¹ s⁻¹ | – | – |
| NRIGN-FTASG | 0 M⁻¹ s⁻¹ | 7815.03 M⁻¹ s⁻¹ | – | – |
| NRPSA-LTASG | 12792.1 M⁻¹ s⁻¹ | 12792.1 M⁻¹ s⁻¹ | – | – |
| NSHMA-LTASG | – | – | 619.843 M⁻¹ s⁻¹ | 517.582 M⁻¹ s⁻¹ |
| NSPQL-LTASG | – | – | 2097.28 M⁻¹ s⁻¹ | 6396.07 M⁻¹ s⁻¹ |
| NTFLH-LTASG | – | – | 0 M⁻¹ s⁻¹ | 0 M⁻¹ s⁻¹ |
| PDVFA-LTASG | 6688.74 M⁻¹ s⁻¹ | 3637.04 M⁻¹ s⁻¹ | – | – |
| PGIAN-LTASG | 2218.08 M⁻¹ s⁻¹ | 7815.03 M⁻¹ s⁻¹ | – | – |
| PGVRF-LTASG | 7815.03 M⁻¹ s⁻¹ | 8941.32 M⁻¹ s⁻¹ | – | – |
| PMARY-LTASG | 3637.04 M⁻¹ s⁻¹ | 12792.1 M⁻¹ s⁻¹ | – | – |
| PSPRA-ITASG | 12792.1 M⁻¹ s⁻¹ | 12792.1 M⁻¹ s⁻¹ | – | – |
| PSPRY-LTASG | – | – | 10866.7 M⁻¹ s⁻¹ | 12792.1 M⁻¹ s⁻¹ |
| PTLWR-ITASG | – | – | 0 M⁻¹ s⁻¹ | 386.839 M⁻¹ s⁻¹ |
| PVVWW-QTASG | 5461.43 M⁻¹ s⁻¹ | 836.403 M⁻¹ s⁻¹ | – | – |
| PYAEN-LTASG | – | – | 551.253 M⁻¹ s⁻¹ | 3253.29 M⁻¹ s⁻¹ |
| QAAFH-LTASG | 3253.29 M⁻¹ s⁻¹ | 3964.21 M⁻¹ s⁻¹ | – | – |
| QHLAA-LTASG | 484.315 M⁻¹ s⁻¹ | 12792.1 M⁻¹ s⁻¹ | – | – |
| QKYSN-LTASG | 0 M⁻¹ s⁻¹ | 5889.62 M⁻¹ s⁻¹ | – | – |
| QRANS-ITASG | 0 M⁻¹ s⁻¹ | 551.253 M⁻¹ s⁻¹ | – | – |
| QRMDL-LTASG | 0 M⁻¹ s⁻¹ | 0 M⁻¹ s⁻¹ | – | – |
| QRVLP-LTASG | – | – | 2038.8 M⁻¹ s⁻¹ | 6396.07 M⁻¹ s⁻¹ |

| Substance | Kobs [1, 3] | Kobs [2, 4] | Kobs [1, 5] | Kobs [2, 6] |
| --- | --- | --- | --- | --- |
| QSPVQ-LTASG | 4205.91 M⁻¹ s⁻¹ | 12792.1 M⁻¹ s⁻¹ | – | – |
| QVPVF-LTASG | 8321.48 M⁻¹ s⁻¹ | 12792.1 M⁻¹ s⁻¹ | – | – |
| RAGFQ-LTASG | – | – | 0 M⁻¹ s⁻¹ | 0 M⁻¹ s⁻¹ |
| RDLWK-LTASG | 56.119 M⁻¹ s⁻¹ | 0 M⁻¹ s⁻¹ | – | – |
| RDVLW-LTASG | 6688.74 M⁻¹ s⁻¹ | 3964.21 M⁻¹ s⁻¹ | – | – |
| RGMQN-LTASG | 690.17 M⁻¹ s⁻¹ | 1610.61 M⁻¹ s⁻¹ | – | – |
| RGPVF-LTASG | – | – | 10866.7 M⁻¹ s⁻¹ | 10866.7 M⁻¹ s⁻¹ |
| RGVWK-LTASG | – | – | 1071.29 M⁻¹ s⁻¹ | 0 M⁻¹ s⁻¹ |
| RHLAK-LTASG | 0 M⁻¹ s⁻¹ | 9740.44 M⁻¹ s⁻¹ | – | – |
| RHMLG-LTASG | – | – | 726.013 M⁻¹ s⁻¹ | 1154.21 M⁻¹ s⁻¹ |
| RKALN-LTASG | 5667.28 M⁻¹ s⁻¹ | 4613.14 M⁻¹ s⁻¹ | – | – |
| RNLAS-LTASG | 142.481 M⁻¹ s⁻¹ | 7815.03 M⁻¹ s⁻¹ | – | – |
| RNVNF-LTASG | – | – | 484.315 M⁻¹ s⁻¹ | 2409.72 M⁻¹ s⁻¹ |
| RPAQD-LTASG | 231.616 M⁻¹ s⁻¹ | 27.918 M⁻¹ s⁻¹ | – | – |
| RRPAS-MTASG | 7015.91 M⁻¹ s⁻¹ | 5090.5 M⁻¹ s⁻¹ | – | – |
| RRPLR-ITASG | – | – | 12792.1 M⁻¹ s⁻¹ | 3165.09 M⁻¹ s⁻¹ |
| RRTAW-LTASG | 1373.05 M⁻¹ s⁻¹ | 8321.48 M⁻¹ s⁻¹ | – | – |
| RRVLA-LTASG | – | – | 12792.1 M⁻¹ s⁻¹ | 12792.1 M⁻¹ s⁻¹ |
| RSPLM-MTASG | 12792.1 M⁻¹ s⁻¹ | 4922.1 M⁻¹ s⁻¹ | – | – |
| RTPLM-LTASG | 12792.1 M⁻¹ s⁻¹ | 12792.1 M⁻¹ s⁻¹ | – | – |
| RTYSH-LTASG | 0 M⁻¹ s⁻¹ | 3079.62 M⁻¹ s⁻¹ | – | – |
| RVIRH-LTASG | 7815.03 M⁻¹ s⁻¹ | 12792.1 M⁻¹ s⁻¹ | – | – |
| RVLSR-LTASG | 0 M⁻¹ s⁻¹ | 8941.32 M⁻¹ s⁻¹ | – | – |
| RVPKL-LTASG | – | – | 4922.1 M⁻¹ s⁻¹ | 1870.4 M⁻¹ s⁻¹ |
| RVPRG-LTASG | 12792.1 M⁻¹ s⁻¹ | 12792.1 M⁻¹ s⁻¹ | – | – |
| RWPAW-LTASG | – | – | 8941.32 M⁻¹ s⁻¹ | 9740.44 M⁻¹ s⁻¹ |
